Here are results for 4 molecules from US20070197606A1, “USE OF PPAR AGONISTS AS ANTI-OXIDANTS” (priority 2006, published 2007).

Experiment [1] is described as follows: In vitro antioxidative effect on free radicals released by the hydrophilic free radical generator AAPH. Conditions: mean±SD, n=6. It counts as biochemical. As to the method: FIG. 6 Effect of L-FABP on free radicals released by the hydrophilic free radical generator AAPH. L-FABP had as much effect on inactivating hydrophilic free radicals as 3.5 mM Vitamin C, while lysozyme and albumin had negligible effect, 96±1% and 97±1%, respectively (mean±SD, n=6).
(§1) Our group has constructed and isolated recombinant L-FABP and used this protein in an in vitro model to study it's antioxidative properties.

Experiment [2] in a line: In vitro antioxidative effect on free radicals released by the lipophilic free radical generator AMVN. It counts as biochemical. How it is done: FIG. 7 Effect of L-FABP on free radicals released by the lipophilic free radical generator AMVN. L-FABP had as much effect on inactivating lipophilic free radicals as 5 μM Vitamin E (mean±SD, n=6).
as §1

Experiment [3] has as its system bile duct ligated rats. It counts as in vivo, rat. Conditions: serum; BDL rats, clofibrate 50 mg/100 g body weight/day by gavage for 5 days after 7 days BDL; mean ± standard error.
Experiment [4] deals with liver fatty acid binding protein. The experiment can be described thus: L-FABP mRNA (RT-PCR) and protein (Western blot) level in liver of bile duct ligated rats with clofibrate treatment. It counts as in vivo, rat. Conditions: BDL rats, five day treatment with clofibrate, n=5. From the text: FIG. 5. […] Bile-duct ligation animal model time study: […] Histopathologic examination: […] The sense primer was [NT] […] ID NO: 2) (position at 407).

In experiment [5] the test system is bile duct ligated rats. The experiment can be described thus: Lipid peroxidation (thiobarbituric acid-reactive substances) assay in bile duct ligated rats with clofibrate treatment. It counts as in vivo, rat. Conditions: BDL rats, clofibrate 50 mg/100 g body weight/day by gavage for 5 days after 7 days BDL, mean ± standard error. From the text:
Bile-duct ligation animal model time study: […] Histopathologic examination: […] The sense primer was [NT] […] ID NO: 2) (position at 407).

Lysozyme: in experiment [1], the “effect on free radical inactivation (AAPH)” value amounted to 96±1%.
On to Albumin, for which the “effect on free radical inactivation (AAPH)” value in experiment [1] is on record as 97±1%.
In the case of `O=C1O[C@H]([C@@H](O)CO)C(O)=C1O` [Vitamin C], the “antioxidant properties in the AMVN system” value in experiment [2] is “no antioxidant properties”.
With `CCOC(=O)C(C)(C)Oc1ccc(Cl)cc1` [Clofibrate], in the experiment with bile duct ligated rats [3], the ATL was determined as 30.70 ± 3.26 U/L, the Ammonia was 205.7 ± 16.6 µmol/L and the “Total Bilirubin” value came out at 4.87 ± 0.90 mg/dL. Also, in experiment [4] (RT-PCR), the “liver fatty acid binding protein mRNA level, of the sham group” value came to 74%. Also, in experiment [4] (Western blot), the “liver fatty acid binding protein level, of the sham group” value was determined as 79%. The “TBARS (liver)” value with bile duct ligated rats [5] (liver) turned out to be 0.266 ± 0.053 nmol/mg protein. For the same molecule, in the experiment on bile duct ligated rats [5] (serum), the “TBARS (serum)” value stood at 0.212 ± 0.032 nmol/ml serum.
